BindingDB's records for doi:10.1016/j.ejmech.2012.11.007 (Chungnam National University, 2013)

test: Inhibition of IL-5 in mouse pro-B Y16 cells after 48 hrs by WST1 assay

SMILES	IC50 [µM]
O=C(/C=C/c1coc2cccc(OCC3CCCCC3)c2c1=O)c1ccccc1	> 30
O=C(/C=C/c1coc2cccc(OCC3CCCCC3)c2c1=O)c1ccc(Cl)cc1	> 30
O=C(/C=C/c1coc2cccc(OCC3CCCCC3)c2c1=O)c1ccc(F)cc1	> 30
O=C(/C=C/c1coc2cccc(OCC3CCCCC3)c2c1=O)c1ccc(C(F)(F)F)cc1	> 30
CC(C)(C)c1ccc(C(O)/C=C/c2coc3cccc(OCC4CCCCC4)c3c2=O)cc1 (centres undefined)	> 30
COc1ccc(C(=O)/C=C/c2coc3cccc(OCC4CCCCC4)c3c2=O)cc1	> 30
CC(C)COc1cccc2occ(/C=C/C(O)c3ccc(O)cc3)c(=O)c12 (centres undefined)	> 30
COc1cccc2occ(/C=C/C(=O)c3ccc(O)cc3)c(=O)c12	> 30
O=C(/C=C/c1coc2cccc(OCC3CCCCC3)c2c1=O)c1ccc([N+](=O)[O-])cc1	> 30
COc1cccc2occ(/C=C/C(O)c3ccc(O)cc3)c(=O)c12 (centres undefined)	> 30
N#Cc1ccc(C(=O)/C=C/c2coc3cccc(OCC4CCCCC4)c3c2=O)cc1	> 30

Stronger by IC50, values ahead:

IC50 [µM]	SMILES
13.2	O=c1c(/C=C/C(O)c2ccc(C(F)(F)F)cc2)coc2cccc(OCC3CCCCC3)c12 (centres undefined)
7	O=c1c(/C=C/C(O)c2ccc(Cl)cc2)coc2cccc(OCC3CCCCC3)c12 (centres undefined)
15	Cc1ccc(C(O)/C=C/c2coc3cccc(OCC4CCCCC4)c3c2=O)cc1 (centres undefined)
7	O=c1c(/C=C/C(O)c2ccc([N+](=O)[O-])cc2)coc2cccc(OCC3CCCCC3)c12 (centres undefined)
12.5	O=c1c(/C=C/C(O)c2ccc(O)cc2)coc2cccc(OCC3CCCCC3)c12 (centres undefined)
16	COc1ccc(C(O)/C=C/c2coc3cccc(OCC4CCCCC4)c3c2=O)cc1 (centres undefined)
6.4	O=c1c(/C=C/C(O)c2ccc(F)cc2)coc2cccc(OCC3CCCCC3)c12 (centres undefined)
6.7	N#Cc1ccc(C(O)/C=C/c2coc3cccc(OCC4CCCCC4)c3c2=O)cc1 (centres undefined)
16.2	O=C(/C=C/c1coc2cccc(OCC3CCCCC3)c2c1=O)c1ccc(O)cc1
19.1	CC(C)COc1cccc2occ(/C=C/C(=O)c3ccc(O)cc3)c(=O)c12
15	O=c1c(/C=C/C(O)c2ccccc2)coc2cccc(OCC3CCCCC3)c12 (centres undefined)
25.1	Cc1ccc(C(=O)/C=C/c2coc3cccc(OCC4CCCCC4)c3c2=O)cc1
18.1	CC(C)(C)c1ccc(C(=O)/C=C/c2coc3cccc(OCC4CCCCC4)c3c2=O)cc1
